Results on 16 compounds are retold here after patent US10927098B2, “Hydroxyalkyl-substituted triazole derivatives and uses thereof” (Bayer Pharma Aktiengesellschaft, priority 2016, dated 2021).

The target of test [1] is T1, human V1a receptor (Homo sapiens, UniProt P37288).
T1 construct: expressed in transfected cells; host or cells: CHO K1 (ATCC), also stably transfected with a modified aequorin
Put plainly: Cellular in vitro assay for determining vasopressin receptor activity, V1a receptor cell line (aequorin luminescence). Format: cell-based. Particulars: for pIC50: CHO cell line transfected with the human V1a receptor, [Arg8]-vasopressin at EC50 concentration, read-out: IC50 hV1a; for ratio IC50 hV2/hV1a: ratio of the IC50 values at human V2 and human V1a receptor. As for the experimental part: (§1) B-1. Cellular In Vitro Assay for Determining Vasopressin Receptor Activity
(§2) The identification of agonists and antagonists of the V1a and V2 vasopressin receptors from humans, rats and dogs as well as the quantification of the activity of the compounds of the invention is carried out using recombinant cell lines. These cell lines originally derive from a hamster's ovary epithelial cell (Chinese Hamster Ovary, CHO K1, ATCC: American Type Culture Collection, Manassas, Va. 20108, USA). The test cell lines constitutively express the human, rat or dog V1a or V2 receptors. In case of the Gαq-coupled V1a receptors, cells are also stably transfected with a modified form of the calcium-sensitive photoproteins aequorin (human and rat V1a) or obelin (dog Via), which, after reconstitution with the cofactor coelenterazine, emit light when there are increases in free calcium concentrations [Rizzuto R, Simpson A W, Brini M, Pozzan T, Nature 358, 325-327 (1992); Illarionov B A, Bondar V S, Illarionova V A, Vysotski E S, Gene 153 (2), 273-274 (1995)]. The resulting vasopressin receptor cells react to stimulation of the recombinantly expressed V1a receptors by intracellular release of calcium ions, which can be quantified by the resulting photoprotein luminescence. The Gs-coupled V2 receptors are stably transfected into cell lines expressing the gene for firefly luciferase under control of a CRE-responsible promoter. Activation of V2 receptors induces the activation of the CRE-responsive promoter via cAMP increase, thereby inducing the expression of firefly luciferase. The light emitted by photoproteins of V1a cell lines as well as the light emitted by firefly luciferase of V2 cell lines corresponds to the activation or inhibition of the respective vasopressin receptor. The bioluminescence of the cell lines is detected using a suitable luminometer [Milligan G, Marshall F, Rees S, Trends in Pharmacological Sciences 17, 235-237 (1996)].
Vasopressin V1a Receptor Cell Lines:
On the day before the assay, the cells are plated out in culture medium (DMEM/F12, 2% FCS, 2 mM glutamine, 10 mM HEPES, 5 μg/ml coelenterazine) in 384-well microtiter plates and kept in a cell incubator (96% humidity, 5% v/v CO2, 37° C.). On the day of the assay, test compounds in various concentrations are placed for 10 minutes in the wells of the microtiter plate before the agonist [Arg^8]-vasopressin at EC50 concentration is added. The resulting light signal is measured immediately in a luminometer.
(§3) Table 1A below lists individual IC50 values for the compounds of the invention (including racemic mixtures as well as separated enantiomers) that were obtained from cell lines transfected with the human V1a or V2 receptor: […]

The target in test [2] is T2, human V2 receptor (Homo sapiens, UniProt P30518).
T2 construct: expressed in transfected cells; host or cells: CHO K1 (ATCC) expressing firefly luciferase under a CRE-responsive promoter
Put plainly: Cellular in vitro assay for determining vasopressin receptor activity, V2 receptor cell line (CRE-luciferase). It counts as cell-based. Particulars: CHO cell line transfected with the human V2 receptor; [Arg8]-vasopressin at EC50 concentration; read-out: IC50 hV2. As for the experimental part: as §1, §2
Vasopressin V2 Receptor Cell Lines:
On the day before the assay, the cells are plated out in culture medium (DMEM/F12, 2% FCS, 2 mM glutamine, 10 mM HEPES) in 384-well microtiter plates and kept in a cell incubator (96% humidity, 5% v/v CO2, 37° C.). On the day of the assay, test compounds in various concentrations and the agonist [Arg^8]-vasopressin at EC50 concentration are added together to the wells, and plates are incubated for 3 hours in a cell incubator. Upon addition of the cell lysis reagent Triton™ and the substrate luciferin, luminescence of firefly luciferase is measured in a luminometer.
as §3

pIC50: −log10 of the molar value.

T1 sequence (P37288 whole entry): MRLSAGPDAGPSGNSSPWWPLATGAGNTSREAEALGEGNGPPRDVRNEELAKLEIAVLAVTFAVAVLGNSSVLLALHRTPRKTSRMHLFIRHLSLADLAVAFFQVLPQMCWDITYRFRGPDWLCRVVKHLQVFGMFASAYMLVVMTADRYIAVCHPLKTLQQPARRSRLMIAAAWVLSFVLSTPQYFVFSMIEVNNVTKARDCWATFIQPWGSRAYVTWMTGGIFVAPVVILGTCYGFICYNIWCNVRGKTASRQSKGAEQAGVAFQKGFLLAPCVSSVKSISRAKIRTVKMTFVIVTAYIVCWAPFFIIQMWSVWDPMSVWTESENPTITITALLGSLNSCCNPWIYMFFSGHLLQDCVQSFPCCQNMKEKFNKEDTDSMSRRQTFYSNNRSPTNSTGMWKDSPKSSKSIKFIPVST
T2 sequence (P30518 whole entry): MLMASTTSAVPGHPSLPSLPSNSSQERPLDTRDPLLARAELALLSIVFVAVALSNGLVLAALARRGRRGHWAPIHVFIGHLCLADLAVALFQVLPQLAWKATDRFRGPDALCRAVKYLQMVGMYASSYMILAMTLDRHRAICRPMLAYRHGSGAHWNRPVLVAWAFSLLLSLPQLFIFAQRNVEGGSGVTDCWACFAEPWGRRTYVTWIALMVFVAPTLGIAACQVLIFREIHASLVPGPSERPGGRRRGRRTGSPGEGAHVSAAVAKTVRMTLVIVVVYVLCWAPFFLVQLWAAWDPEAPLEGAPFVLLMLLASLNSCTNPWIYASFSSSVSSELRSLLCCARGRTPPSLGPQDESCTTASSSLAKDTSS

For orientation: pIC50 means the IC50 on a negative log10 scale, so that one unit is a factor of ten. For the compound `O=c1n(Cc2nc(C(O)C(F)(F)F)n(-c3cccc(Cl)c3)n2)nc(-c2ccc(Cl)cc2)n1C[C@H](O)C(F)(F)F` (single isomer, unassigned) [Example 12], the pIC50 in test [1] is 8.66; in test [2] it was 7.46. The “ratio IC50 hV2/hV1a” value in test [1] is listed as 15.8.
Taken in the same sequence, the figures for `CC(C)C(O)c1nc(Cn2nc(-c3ccc(Cl)cc3)n(C[C@H](O)C(F)(F)F)c2=O)nn1-c1ccccc1Cl` (mixture of isomers) [Example 7, 5-(4-Chlorophenyl)-2-{[1-(2-chlorophenyl)-5-(1-hydroxy-2-methylpropyl)-1H-1,2,4-triazol-3-yl]methyl}-4-[(2S)-3,3,3-trifluoro-2-hydroxypropyl]-2,4-dihydro-3H-1,2,4-triazol-3-one] were 9.10, 8.29 and 6.4.
With `O=c1n(Cc2nc(C(O)C(F)(F)F)n(-c3cccc(Cl)c3)n2)nc(-c2ccc(Cl)cc2)n1C[C@H](O)C(F)(F)F` (mixture of isomers) [Example 10, 5-(4-Chlorophenyl)-2-{[1-(3-chlorophenyl)-5-(2,2,2-trifluoro-1-hydroxyethyl)-1H-1,2,4-triazol-3-yl]methyl}-4-[(2S)-3,3,3-trifluoro-2-hydroxypropyl]-2,4-dihydro-3H-1,2,4-triazol-3-one], in test [1], the pIC50 is 7.87 and the “ratio IC50 hV2/hV1a” value is on record as 0.2. Moreover, the pIC50 in test [2] was 8.68.
Taken in the same sequence, the figures for `CC(O)(C(=O)O)c1nc(Cn2nc(-c3ccc(Cl)cc3)n(C[C@H](O)C(F)(F)F)c2=O)nn1-c1ccccc1Cl` (single isomer, unassigned) [Example 15] were 8.46, 7.6 and 7.58.
Consider `CC(O)(C(=O)O)c1nc(Cn2nc(-c3ccc(Cl)cc3)n(C[C@H](O)C(F)(F)F)c2=O)nn1-c1ccccc1Cl` (single isomer, unassigned) [Example 16], for which, in test [1], the pIC50 is 8.26 and the “ratio IC50 hV2/hV1a” value is 45.8. The pIC50 in test [2] was 6.60.
Taken in the same sequence, the figures for `CC(C)C(O)c1nc(Cn2nc(-c3ccc(Cl)cc3)n(C[C@H](O)C(F)(F)F)c2=O)nn1-c1ccccc1Cl` (single isomer, unassigned) [Example 8] were 9.22, 3.7 and 8.66.
With `CC(O)(C(=O)O)c1nc(Cn2nc(-c3ccc(Cl)cc3)n(C[C@H](O)C(F)(F)F)c2=O)nn1-c1ccccc1Cl` (mixture of isomers) [Example 14, 2-[1-(2-Chlorophenyl)-3-({3-(4-chlorophenyl)-5-oxo-4-[(2S)-3,3,3-trifluoro-2-hydroxypropyl]-4,5-dihydro-1H-1,2,4-triazol-1-yl}methyl)-1H-1,2,4-triazol-5-yl]-2-hydroxypropanoic acid], in test [1], the negative-log IC50 (pIC50) was 7.78 and the “ratio IC50 hV2/hV1a” value is recorded as 4.6. Further, in test [2], the pIC50 was 7.12.
With `CC(C)(O)c1nc(Cn2nc(-c3ccc(Cl)cc3)n(C[C@H](O)C(F)(F)F)c2=O)nn1-c1cccc(F)c1` [Example 1, 5-(4-Chlorophenyl)-2-{[1-(3-fluorophenyl)-5-(2-hydroxypropan-2-yl)-1H-1,2,4-triazol-3-yl]methyl}-4-[(2S)-3,3,3-trifluoro-2-hydroxypropyl]-2,4-dihydro-3H-1,2,4-triazol-3-one], in test [1], the pIC50 is 8.18 and the “ratio IC50 hV2/hV1a” value came to 3.8. For the same compound, the pIC50 in test [2] was 7.60.
As to `O=c1n(Cc2nc(C(O)C(F)(F)F)n(-c3cccc(Cl)c3)n2)nc(-c2ccc(Cl)cc2)n1C[C@H](O)C(F)(F)F` (single isomer, unassigned) [Example 11], in test [1], the pIC50 is 7.83 and the “ratio IC50 hV2/hV1a” value amounted to 0.1. Moreover, the pIC50 in test [2] was 8.74.
The corresponding values for `CC(C)(O)c1nc(Cn2nc(-c3ccc(Cl)cc3)n(C[C@H](O)C(F)(F)F)c2=O)nn1-c1cccc(Cl)c1` [Example 2, 5-(4-Chlorophenyl)-2-{[1-(3-chlorophenyl)-5-(2-hydroxypropan-2-yl)-1H-1,2,4-triazol-3-yl]methyl}-4-[(2S)-3,3,3-trifluoro-2-hydroxypropyl]-2,4-dihydro-3H-1,2,4-triazol-3-one] are 7.66, 0.2 and 8.48.
The corresponding values for `CCC(O)c1nc(Cn2nc(-c3ccc(Cl)cc3)n(C[C@H](O)C(F)(F)F)c2=O)nn1-c1ccccc1Cl` (single isomer, unassigned) [Example 6] are 9.15, 12.0 and 8.08.
Take `CCC(O)c1nc(Cn2nc(-c3ccc(Cl)cc3)n(C[C@H](O)C(F)(F)F)c2=O)nn1-c1ccccc1Cl` (mixture of isomers) [Example 4, 5-(4-Chlorophenyl)-2-{[1-(2-chlorophenyl)-5-(1-hydroxypropyl)-1H-1,2,4-triazol-3-yl]methyl}-4-[(2S)-3,3,3-trifluoro-2-hydroxypropyl]-2,4-dihydro-3H-1,2,4-triazol-3-one]: in test [1], the negative-log IC50 (pIC50) is 9.15 and the “ratio IC50 hV2/hV1a” value is reported as 6.7. Further, the negative-log IC50 (pIC50) in test [2] was 8.33.
The corresponding values for `CCC(O)c1nc(Cn2nc(-c3ccc(Cl)cc3)n(C[C@H](O)C(F)(F)F)c2=O)nn1-c1ccccc1Cl` (single isomer, unassigned) [Example 5] are 8.80, 2.6 and 8.38.
As for `CC(C)(O)c1nc(Cn2nc(-c3ccc(Cl)cc3)n(C[C@H](O)C(F)(F)F)c2=O)nn1-c1ccccc1Cl` [Example 13, 5-(4-Chlorophenyl)-2-{[1-(2-chlorophenyl)-5-(2-hydroxypropan-2-yl)-1H-1,2,4-triazol-3-yl]methyl}-4-[(2S)-3,3,3-trifluoro-2-hydroxypropyl]-2,4-dihydro-3H-1,2,4-triazol-3-one], in test [1], the pIC50 was 8.68 and the “ratio IC50 hV2/hV1a” value was 3.3. Also, the pIC50 in test [2] was 8.16.
The corresponding values for `COc1ccccc1-n1nc(Cn2nc(-c3ccc(Cl)cc3)n(C[C@H](O)C(F)(F)F)c2=O)nc1C(C)(C)O` [Example 3, 5-(4-Chlorophenyl)-2-{[5-(2-hydroxypropan-2-yl)-1-(2-methoxyphenyl)-1H-1,2,4-triazol-3-yl]methyl}-4-[(2S)-3,3,3-trifluoro-2-hydroxypropyl]-2,4-dihydro-3H-1,2,4-triazol-3-one] are 9.10, 2.4 and 8.72.
Take `CC(C)C(O)c1nc(Cn2nc(-c3ccc(Cl)cc3)n(C[C@H](O)C(F)(F)F)c2=O)nn1-c1ccccc1Cl` (single isomer, unassigned) [Example 9]: in test [1], the pIC50 was 9.05 and the “ratio IC50 hV2/hV1a” value was determined as 28.2. In addition, the pIC50 in test [2] was 7.60.
